Test results from patent US5039665A, “Use of fructose-1,6-diphosphate for treating myocardial infarction” (priority 1990, dated 1991).
“And” between values parts separate entries of the source, which are not always exact repeats. Equal values may be shown once. “Also recorded” adds a separate entry of the source.

Experiments:
[1] = tested on: dogs subjected to hemorrhagic shock; test: irreversible hemorrhagic shock in dogs (modified Wiggers technique, 35 mm Hg for 3 hours); assay type: in vivo, dog; settings: for survival after retransfusion: retransfused at three hours
Protocol: In the experiments regarding an irreversible hemorrhagic shock, results were obtained in the dog model using Wigger's modified technique. We compared a group of animals receiving IV administration of fructose-1,6-diphosphate (FDP) to a group receiving equimolar glucose.
The experiments were performed in b 25 pentobarbital anesthetized (30 mg/kg IV) mongrel dogs of both sexes. After induction of anesthesia the animals were […] and ventilated with a Harvard respiration pump with the use of ambient air. Secured in the left lateral decubitus position on the fluoroscopic table, a femoral artery was used to introduce a large bore polyethylene catheter which was connected to a 1.5 liter bottle elevated at 35 mm Hg above the atrial level. In the connecting system an external calibrated electromagnetic flow probe (Statham) was incorporated in order to follow the direction and amount of blood flow. The pressure in this system was monitored through a side opening with the aid of a Statham pressure gauge. The other femoral artery was percutaneously catheterized and a Judkins type pigtail catheter was advanced to the aortic root. In the course of the experiments this catheter was placed intermittently into the left ventricle when recordings were made. This set-up enable us to monitor both aortic and left ventricular pressures via a single catheter. The femoral vein on the side where the incision was made was catheterized as well as a superficial vein of the front limb transutaneously for administration of the FDP, glucose, heparin and supplemental anesthetic. Parameters such as aortic, ventricular and femoral pressures, and EKG were monitored on an Electronics for Medicine DR-8 recorder. Recording of these parameters was made every 15 min. Heparin ([…] initially and thereafter 3 mg/kg/2 hrs) and antibiotics were given to all animals that were allowed to recover. A control period of one hour was allowed prior to bleeding the animal. During this period two arterial blood samples were drawn for pH, pO2, pCO2, pCO2 combining power and lactic acid determinations. During the oliegemic phase four arterial samples were taken for determination of the same parameters described at 30 min, 1 hr, 2 hrs, and 2 hrs 45 min.
The blood from the animals was withdrawn via the femoral artery (50-55 ml/min) until the means arterial pressure dropped to 35 mm Hg and from then on the pressure was kept at this level for three hours. The protocol for evaluating the therapeutic effect of FDP was designed in the following manner. […] Both groups received an additional 500 mg IV bolus of FDP or glucose every 30 min for the duration of the oligemic phase. In five controls and six treated dogs the chest was opened at three hours and with the aid of a specially designed cutting tool that had been cooled in liquid nitrogen, frozen transmural sections from the left ventricle were taken for ATP, creatine phosphate (CP), FDP and lactic acid determinations. The remaining 14 animals (6 controls and 8 treated with FDP) were retransfused at three hours and allowed to recover.
The epicardium and endocardium from the frozen tissue were separated (while still frozen) and homogenized in 6% perchloric acid. The supernatant was used to determine ATP, CP and lactate. The ATP and creatine phosphate were assessed with the method described by Lamprecht (Lamprecht, W., and P. Stein. Methods of Enzymatic Analysis. Ed: H. V. Bergmeyer, New York, Academic Press, 1963, p. 610.) while lactate was measured by the method of Marback (Marback, E. P., and M. H. Weil. Rapid enzymatic measurement of blood lactate and pyruvate. Clin. Chem. 13: 314, 1967). Tissue content of FDP was assessed by the method of Bucher and Hohorst (Bucher, T., and H. J. Hohorst. Dihydroxyacetone phosphate, fructose 1-6 diphosphate and D-glyceraldehyde 3-phosphate. In. Methods of Enzymatic Analysis. Ed: Bermeyer, New York, Academic Press, 1963, pgs. 246-252.)

blood = blood preservation: ATP content of refrigerated blood, 25, 50 and 100 mg per 10 ml; parameters: species or system dog
Protocol: The tests were also conducted under the conditions when 25mg, 50mg, and 100mg of FDP were mixed with 10ml of blood and 25mg, 50mg, and 100mg, of glucose were mixed with 10ml of blood. […]

human WBC = test: carbohydrate metabolism of human white blood cells in vitro; assay type: cell-based; settings: for ATP content: incubated at 37° Celsius
Protocol: The tests were also conducted to investigate the effect of FDP on white blood cells (WBC) on metabolism in vitro. […] It was experimentally assessed whether FDP can stimulate the carbohydrate metabolism of these cells at rest. A similar phenomenon observed for normal human erythrocytes, sickle cells and dog erythrocytes. From healthy humans and dogs, the white blood cells were separated and incubated at 37° Celsius for various periods of time with FDP, glucose and normal saline. At the end of incubation, ATP and intermediates of the glycolytic pathway were assessed. […] The pyruvic acid concentration in dog WBC incubated with FDP was 10 times greater than those incubated in glucose while those for the human WBC, this difference was of much lesser degree (X2). The dihydroxyacetone (DHA) in the human and canine WBC was 5 to 10 times greater in the FDP incubated than in the glucose ones.

[2] = tested on: dogs subjected to endotoxin shock; test: endotoxin shock in dogs (E. coli endotoxin) with fluid support; assay type: in vivo, dog
Protocol: The study was also conducted to determine whether IV administration of FDP to dogs subjected to lethal doses of endotoxin will prevent damage to the intestinal mucosa, and death. The rationale was that endotoxin per se and its deleterious effect on hemolate phase acidosis inhibits glycolysis by inactivation of the rate limiting enzyme phosphofructokinase.
Endotoxin shock was produced in digs by IV injection of E. coli endotoxin. Survival of control animals which received glucose and volume replacement was 18%d while for those treated with FDP it was 90%.
FIG. 5 is a diagram showing the intestinal fluid loss and urine output of dogs subjected to endotoxin shock. Seven dogs were treated with equimolar FDP and eight received glucose. All animals received fluid supportive therapy (150 ml. of Rheomacrodex and 300 cc. of Lactate Ringer).
Seven were treated with FDP and the controls (8) received equimolar glucose.

[3] = tested on: fluid deprived dogs after endotoxin; test: endotoxin shock in fluid deprived dogs (1 mg/kg endotoxin); assay type: in vivo, dog; settings: no fluid given; three pairs
Description: In three pairs no fluid was given except for the FDP and glucose.

erythrocytes = test: incubation of erythrocytes: ATP and 2-3 DPG content; assay type: cell-based
Description: To allow for a broader and more complete interpretation of the results, a small paragraph will be devoted to the ability of FDP to cross the cellular membranes.

[4] = tested on: dogs in surgical anesthesia; test: anesthetic requirement to maintain surgical anesthesia in dogs; assay type: in vivo, dog; settings: FDP n=104 vs controls n=103
[5] = 25 mg with 10ml of blood, 24 hours
[6] = 25 mg with 10ml of blood, 48 hours
[7] = 50 mg with 10ml of blood, 24 hours
[8] = 50 mg with 10ml of blood, 48 hours
[9] = 100 mg with 10ml of blood, 24 hours
[10] = 100 mg with 10ml of blood, 48 hours

O=C[C@H](O)[C@@H](O)[C@H](O)[C@H](O)CO [glucose, reference compound]
ischemic EKG changes in control (glucose) animals ([1]; 55 min to 1 hour 15 minutes after onset of shock): All control animals demonstrated ischemic EKG changes | creatine phosphate (CP) in the endocardium, less than normal ([1]; at three hours): 88% | creatine phosphate (CP) in the epicardium, less than normal ([1]; at three hours): 64% | endocardial ATP content, fall ([1]; at three hours): 50% | endocardial/epicardial tissue lactate ratio ([1]; at three hours): 1.52±0.21 | ST elevation ([1]; maximum at 2 hours, precordial leads): 0.55±0.17 mV | survival after retransfusion [1]: All 6 control animals that were retransfused died within 24 hours | ATP (blood; [5]): 0.475 m mole/ml | ATP (blood; [6]): 0.475 m mole/ml | ATP (blood; [7]): 0.375 m mole/ml | ATP (blood; [8]): 0.450 m mole/ml | ATP (blood; [9]): 0.250 m mole/ml | ATP (blood; [10]): 0.426 m mole/ml | ATP content (human WBC): 1.28±0.21 m.mole/#WBC | blood in the fluid lost from the intestine ([2]; dog, in vivo): In all controls there was blood in the fluid lost from the intestine | survival ([2]; dog, in vivo): 18% | time to death [3]: 21/2 | ATP content in the erythrocytes (erythrocytes; equimolar, same conditions): failed to increase the ATP content

O=C(COP(=O)(O)O)[C@@H](O)[C@H](O)[C@H](O)COP(=O)(O)O [FDP, fructose-1,6-diphosphate]
outcome of irreversible experimental hemorrhagic shock ([1]; 3 hour duration at 35mm Hg AP): could be successfully treated with FDP | mortality ([1]; FDP by IV administration): zero | creatine phosphate (CP) depletion ([1]; FIG. 4, epicardium and endocardium, 35 mm. Hg. for 3 hours): prevents depletion of creatine phosphate (CP) in both epicardium and endocardium | ATP content in the epicardium ([1]; FIG. 4, hypotension of 35 mm. Hg. for 3 hours, FDP vs controls): no significant difference in ATP content | myocardial contractility ([1]; Intravenous administration): improves the myocardial contractility | arterial plasma lactic acid, course after 2 hours ([1]; after 2 hours of hemorrhage): the plasma lactate continued to rise | heart rate return towards control ([1]; after retransfusion): returned faster towards control | ATP myocardial content ([1]; at three hours): normal ATP myocardial content and no transmural gradient | CP in the epicardium (in words) ([1]; at three hours): no deficit in the epicardium | creatine phosphate (CP) in the endocardium, less than normal ([1]; at three hours): 18% | endocardial/epicardial tissue lactate ratio ([1]; at three hours): 2.26 ±0.26 | ATP and CP content in the myocardium / endocardium ([1]; dog, in vivo): restores ATP and CP content in the myocardium | ST elevation (in words) ([1]; dog, in vivo): only minimal elevation was observed in two animals | activity of glycolysis in the endocardium ([1]; dog, in vivo): restores the depressed activity of glycolysis in the endocardium | heart rate ([1]; dog, in vivo): < 200 beats/min | plasma lactate and myocardial tissue lactate ([1]; dog, in vivo): increased plasma lactate and myocardial tissue lactate | ATP and CP content in the myocardium / endocardium ([1]; dog, in vivo, listed as Fructose diphosphate): increased significantly the ATP and CP in the endocardium | plasma lactate ([1]; measured at 2 hrs 45 min after the onset of hypotension): 124±16 mg % | arterial pH ([1]; not exceptional in the group treated with FDP): ≤ 6.8 | animals with spontaneous reversal of blood flow (from the bottle to the animal) ([1]; oligemic phase): only two of them reversed their flow | electrocardiographic (EKG) ischemic changes ([1]; oligemic phase): In both animals after FDP was given the ischemic changes disappeared; also recorded: prevents the EKG ischemic changes | electrocardiographic (EKG) ischemic changes ([1]; oligemic phase, listed as Fructose diphosphate): prevented electrocardiographic ischemic changes | survival after retransfusion [1]: All 8 dogs treated with FDP survived | renal and bowel function, neurological deficit ([1]; surviving dogs): normal renal and bowel function and no neurological deficit was noted | amount of blood uptake ([1]; two FDP animals with reversed flow): 24 % of the shed blood and 17 % of the shed blood | anesthetic required [4]: twice as much anesthetic | ATP (blood; [5]): 1.67 m mole/ml | ATP (blood; [6]): 1.92 m mole/ml | ATP (blood; [7]): 2.2 m mole/ml | ATP (blood; [8]): 2.85 m mole/ml | ATP (blood; [9]): 2.82 m mole/ml | ATP (blood; [10]): 3.40 m mole/ml | effect on carbohydrate metabolism (human WBC): profound stimulating effect on the carbohydrate metabolism | concentration dependence of ATP production (human WBC; 5 to 50 mg/ml FDP, no AMP or ADP): independent of the concentration (from 5 to 50 mg/ml), but rather a function of the incubation time | concentration dependence of ATP increase (human WBC; AMP or ADP added): the increase of ATP becomes a function of the FDP concentration | ATP content (human WBC): 2.47±0.25 m.mole/#WBC | Urinary output ([2]; dog, in vivo): 276±98 ml/6 hours | blood in the fluid lost from the intestine ([2]; dog, in vivo): no blood was observed; also recorded: no blood was noted | intestinal fluid loss ([2]; dog, in vivo): 285±36 ml/6 hours | stomach and intestine mucosa findings ([2]; dog, in vivo): only some vascular congestion was noted | survival ([2]; dog, in vivo): 90% | death, intestinal hemorrhage and fluid loss, renal function, mucosal necrosis ([2]; lethal doses of endotoxin): prevents death, intestinal hemorrhage and fluid loss, conserves normal renal function and protects the mucosa of the stomach and intestine from hemorrhagic necrosis | survival [3]: survived and are still living (five months after the experiment) | ATP and 2-3 DPG in the erythrocytes (erythrocytes): substantial increase of ATP and 2-3 DPG in the erythrocytes | ATP and 2-3 DPG content in erythrocytes (erythrocytes; 5% FDP): large increase in their ATP and 2-3 DPG content
